Laboratory results from patent publication US20070098648A1, “Treating mouth sores caused by dental braces with blobs of hydrophilic gums” (priority 2002, published 2007).

What was measured:
mouth sores = test: experimentation with amoxicillin on conventional patches; type: in vivo; details: conventional amoxicillin powder for oral suspension, mixed into the patch and dried
Text: Because use of antibiotics, antibacterials, and other pharmaceutical antimicrobials causes adverse side affects, experimentation with these medications has been limited. […] Conventional amoxicillin powder for preparation of oral suspension was used, which includes sugars and other excipients. The sugars act as a binder to the oral patch. The oral suspension is mixed into the patch or blob and dried. Preferably, the amoxicillin powder is mixed into a stronger than normal liquid before being added to the patch or blob.

[1] = side effects of glycyrrhetinic acid in the quantities a person could use per day; type: in vivo, human; details: in the quantities that a person could use per day
Text: For medication to be placed in the patch or blob, any of the above-mentioned antimicrobials, or similar antimicrobials, may be used. […] The preferred quantity of glycyrrhetinic acid in each patch or blob is 5 to 7%.

Structure (SMILES)	effect of amoxicillin on conventional patches (mouth sores)	side effects [1]
CC1(C)S[C@@H]2[C@H](NC(=O)[C@H](N)c3ccc(O)cc3)C(=O)N2[C@H]1C(=O)O [amoxicillin]	works quite well	
CC1(C)[C@@H](O)CC[C@]2(C)[C@H]3C(=O)C=C4[C@@H]5C[C@@](C)(C(=O)O)CC[C@]5(C)CC[C@@]4(C)[C@]3(C)CC[C@@H]12 [glycyrrhetinic acid]		no side affects have been discovered
